Data taken from the supplement of paper PMC10307832.

Columns and labels:
Assay in all cases: relative viability (nuclei count vs DMSO), 5 days (fraction); higher = more cells survive
Tipifarnib + Pictilisib = compound: Cn1cncc1[C@@](N)(c1ccc(Cl)cc1)c1ccc2c(c1)c(-c1cccc(Cl)c1)cc(=O)n2C [Tipifarnib] + CS(=O)(=O)N1CCN(Cc2cc3nc(-c4cccc5[nH]ncc45)nc(N4CCOCC4)c3s2)CC1 [Pictilisib] (partner 1 µM)
Procedure, shortened: (§1)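 Relative viability divides the nuclei count in treated wells by that in vehicle wells. Lung cancer cell lines were seeded in 1536-well plates, dosed by pin tool the next day, and fixed and stained after 5 days in one step with final 0.05% Triton X-100, 1% formaldehyde and 1 ug/ml Hoechst. Dosing was a single drug or a fixed anchor-drug dose plus five library-drug doses (not always all listed) in √10 steps, and values are medians of duplicate plates imaged at 4×.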

Tipifarnib + Phenformin = compound: Cn1cncc1[C@@](N)(c1ccc(Cl)cc1)c1ccc2c(c1)c(-c1cccc(Cl)c1)cc(=O)n2C [Tipifarnib] + N=C(N)NC(=N)NCCc1ccccc1 [Phenformin] (partner 250 µM)
Procedure, shortened: as §1

Tipifarnib + Palbociclib = compound: Cn1cncc1[C@@](N)(c1ccc(Cl)cc1)c1ccc2c(c1)c(-c1cccc(Cl)c1)cc(=O)n2C [Tipifarnib] + CC(=O)c1c(C)c2cnc(Nc3ccc(N4CCNCC4)cn3)nc2n(C2CCCC2)c1=O [Palbociclib] (partner 0.5 µM)
Procedure, shortened: as §1

Tipifarnib + Decitabine = compound: Cn1cncc1[C@@](N)(c1ccc(Cl)cc1)c1ccc2c(c1)c(-c1cccc(Cl)c1)cc(=O)n2C [Tipifarnib] + Nc1ncn([C@H]2C[C@H](O)[C@@H](CO)O2)c(=O)n1 [Decitabine] (partner 2 µM)
Procedure, shortened: as §1

Row | Cell Line | relative viability (Tipifarnib + Pictilisib; first compound 0.01 µM) | relative viability (Tipifarnib + Pictilisib; first compound 0.03162 µM) | relative viability (Tipifarnib + Pictilisib; first compound 0.1 µM) | relative viability (Tipifarnib + Pictilisib; first compound 0.3162 µM) | relative viability (Tipifarnib + Pictilisib; first compound 1 µM) | relative viability (Tipifarnib + Phenformin; first compound 0.01 µM) | relative viability (Tipifarnib + Phenformin; first compound 0.03162 µM) | relative viability (Tipifarnib + Phenformin; first compound 0.1 µM) | relative viability (Tipifarnib + Phenformin; first compound 0.3162 µM) | relative viability (Tipifarnib + Phenformin; first compound 1 µM) | relative viability (Tipifarnib + Palbociclib; first compound 0.01 µM) | relative viability (Tipifarnib + Palbociclib; first compound 0.03162 µM) | relative viability (Tipifarnib + Palbociclib; first compound 0.1 µM) | relative viability (Tipifarnib + Palbociclib; first compound 0.3162 µM) | relative viability (Tipifarnib + Palbociclib; first compound 1 µM) | relative viability (Tipifarnib + Decitabine; first compound 0.01 µM) | relative viability (Tipifarnib + Decitabine; first compound 0.03162 µM) | relative viability (Tipifarnib + Decitabine; first compound 0.1 µM) | relative viability (Tipifarnib + Decitabine; first compound 0.3162 µM) | relative viability (Tipifarnib + Decitabine; first compound 1 µM)
1 | H3255 | 0.565 | 0.449 | 0.416 | 0.375 | 0.395 | 0.376 | 0.436 | 0.395 | 0.344 | 0.353 | 0.331 | 0.276 | 0.27 | 0.287 | 0.258 | 0.685 | 0.556 | 0.605 | 0.48 | 0.492
2 | EPLC-272H | 0.339 | 0.265 | 0.392 | 0.283 | 0.186 | 0.357 | 0.328 | 0.344 | 0.266 | 0.149 | 0.358 | 0.265 | 0.328 | 0.298 | 0.263 | 0.426 | 0.404 | 0.37 | 0.298 | 0.246
3 | PC-3 [JPC-3] | 0.811 | 0.651 | 0.651 | 0.44 | 0.508 | 0.513 | 0.44 | 0.458 | 0.399 | 0.377 | 0.458 | 0.553 | 0.642 | 0.497 | 0.495 | 0.866 | 0.872 | 0.828 | 0.644 | 0.648
4 | NCI-H1793 | 0.446 | 0.256 | 0.307 | 0.247 | 0.265 | 0.357 | 0.371 | 0.354 | 0.194 | 0.267 | 0.29 | 0.258 | 0.228 | 0.213 | 0.233 | 0.555 | 0.427 | 0.374 | 0.338 | 0.365
5 | EKVX | 0.477 | 0.4 | 0.455 | 0.339 | 0.355 | 0.238 | 0.214 | 0.229 | 0.211 | 0.173 | 0.396 | 0.362 | 0.35 | 0.281 | 0.284 | 0.299 | 0.34 | 0.261 | 0.289 | 0.275
6 | ChaGo-K-1 | 0.694 | 0.8 | 0.71 | 0.618 | 0.542 | 0.451 | 0.518 | 0.464 | 0.412 | 0.273 | 0.996 | 0.937 | 0.932 | 0.885 | 0.758 | 0.542 | 0.535 | 0.549 | 0.483 | 0.465
7 | NCI-H23 | 0.469 | 0.448 | 0.312 | 0.268 | 0.232 | 0.845 | 0.752 | 0.564 | 0.435 | 0.346 | 0.577 | 0.397 | 0.405 | 0.35 | 0.341 | 0.333 | 0.349 | 0.307 | 0.266 | 0.281
8 | EMC-BAC-2 | 0.573 | 0.509 | 0.467 | 0.525 | 0.366 | 0.501 | 0.437 | 0.459 | 0.485 | 0.357 | 0.501 | 0.469 | 0.494 | 0.463 | 0.465 | 1.11 | 0.853 | 0.84 | 0.681 | 0.562
